Measured values reported in PubChem BioAssay (NCI).
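Each compound was tested at five concentrations against cells in 96-well plates for 48 hours. TGI denotes the concentration required for complete inhibition of growth.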

Assays:
Experiment in all cases: NCI anticancer screen, dose series, 48 h
NCI/ADR-RES ovarian = tested on: NCI/ADR-RES ovarian
ACHN renal = tested on: ACHN renal
U251 CNS = tested on: U251 CNS
MDA-N = tested on: MDA-N
M14 melanoma = tested on: M14 melanoma
T-47D breast = tested on: T-47D breast
HL-60(TB) leukemia = tested on: HL-60(TB) leukemia
HOP-62 NSCLC = tested on: HOP-62 NSCLC
PC-3 prostate = tested on: PC-3 prostate
SK-MEL-28 melanoma = tested on: SK-MEL-28 melanoma
SF-539 CNS = tested on: SF-539 CNS

Structure (SMILES) | TGI (NCI/ADR-RES ovarian) | TGI (ACHN renal) | TGI (U251 CNS) | TGI (MDA-N) | TGI (M14 melanoma) | TGI (T-47D breast) | TGI (HL-60(TB) leukemia) | TGI (HOP-62 NSCLC) | TGI (PC-3 prostate) | TGI (SK-MEL-28 melanoma) | TGI (SF-539 CNS)
CCOC(=O)c1c[nH]c(C(=O)OCC)c1-c1cccn1-c1ccccc1 | 76 µM | > 100 µM | 48 µM | 99.2 µM | 41.9 µM | > 100 µM | 54.4 µM | 50 µM | 82.5 µM | 79.5 µM | –
CC(C)c1cccc(C(C)C)c1NC(=O)C(=O)Cc1nc2ccc([N+](=O)[O-])cc2[nH]c1=O | – | > 100 µM | – | – | > 100 µM | – | > 100 µM | – | – | > 100 µM | > 100 µM
CCOC1=C2N=C(C(CC)c3ccccc3F)N=C2C(=O)c2ccccc21 (stereo unspecified) | – | > 100 µM | > 100 µM | – | > 100 µM | – | > 100 µM | > 100 µM | – | > 100 µM | > 100 µM
CC1=C(c2nc3ccccc3s2)C(=O)OC1(C)C | – | > 100 µM | > 100 µM | – | > 100 µM | – | – | > 100 µM | – | > 100 µM | > 100 µM
COc1ccc(N2C(=O)c3c(c4[nH]c5ccccc5c4c4ccc(C(C)(C)C)cc34)C2=O)cc1 | – | > 100 µM | 42.7 µM | – | > 100 µM | – | – | > 100 µM | – | > 100 µM | > 100 µM
CCOC(=O)N/N=C(/N)c1cccc(Br)c1 | > 100 µM | > 100 µM | – | > 100 µM | > 100 µM | > 100 µM | > 100 µM | > 100 µM | > 100 µM | – | > 100 µM
CO/C(N)=C(\C#N)N=Cc1ccc2ccccc2c1 | > 100 µM | > 100 µM | > 100 µM | > 100 µM | – | > 100 µM | 15.6 µM | > 100 µM | > 100 µM | > 100 µM | –
C=C1CC(C)(COc2ccc3c(C)c(Cl)c(=O)oc3c2)OC1=O (stereo unspecified) | 14.2 µM | 11.4 µM | 21 µM | 5.45 µM | 3.65 µM | – | 1.21 µM | 34.5 µM | 12 µM | 7.59 µM | 15.6 µM
CCOC(=O)c1c2ccc(/C=C/c3ccccn3)ccc-2c(C(=O)OCC)c1N | – | > 100 µM | – | – | > 100 µM | – | > 100 µM | – | – | 1.49 µM | > 100 µM
O=C1NC2NC3NC(=O)NC3NC2N1 (stereo unspecified) | > 100 µM | > 100 µM | > 100 µM | > 100 µM | > 100 µM | – | > 100 µM | > 100 µM | > 100 µM | > 100 µM | > 100 µM
C=CCCC1(O)C(O)C(CO)O[C@H](O[C@@]2(CO)OC(CO)C(O)C2O)C1O (stereo partly specified) | > 100 µM | > 100 µM | > 100 µM | – | > 100 µM | – | > 100 µM | > 100 µM | > 100 µM | > 100 µM | > 100 µM
CC(C)(C)OC(=O)NC1CCCC1C(=O)C1=CCCC1 (stereo unspecified) | > 100 µM | > 100 µM | > 100 µM | > 100 µM | > 100 µM | > 100 µM | > 100 µM | > 100 µM | > 100 µM | > 100 µM | –
COc1ccc(C2c3cc4c(cc3OC(NNc3ccccc3)C2C)OCO4)cc1 (stereo unspecified) | – | 49.5 µM | > 100 µM | > 100 µM | > 100 µM | > 100 µM | 20.8 µM | 20.2 µM | > 100 µM | > 100 µM | 6.55 µM
